Assay results as given in patent publication US9180160B2, “Complement inhibitors for treatment of injury from intracerebral hemorrhage” (The Trustees of the University of Pennsylvania, priority 2008, dated 2015).
Where “and” joins values, the source holds several entries; their conditions need not be identical. Equal values may be shown once. Entries after “also recorded” stand apart in the source; their conditions may differ.

How the values were obtained:
[1] = system: C57BL/6J mice subjected to ICH; assay: Corner turn test (laterality index) after ICH; format: in vivo; conditions: for corner turn test (laterality index): 1 mg/kg i.p. first at 6 h and 12 h after ICH, then twice daily for 72 hours, versus vehicle
Experimental: (§1) Animal Preparation and Intracerebral Infusion. Adult male C57BL/6J mice weighing 23-30 g were used. Mice were randomized to receive intraperitoneal injection of either C3aRA (1 mg/kg) (SB290157, Calbiochem, Darmstadt, Germany) diluted in PBS and DMSO (1.16% v/v), or an equal volume of vehicle (PBS and DMSO, 1.16% DMSO v/v) either 45 minutes prior to ICH induction or 6 and 12 hours after induction of ICH, followed in both cohorts by twice daily doses for 72 hours. […] Sham animals were given PBS and DMSO (1.16% v/v) in the same manner.
Mice were anesthetized with a single intraperitoneal dose of ketamine (90 mg/kg) and xylazine (5 mg/kg). Next, the mice were placed in a stereotactic frame (ASI Instruments, Inc., Warren, Mich., USA) and subjected to ICH using autologous blood infusion as previously described (Rynkowski M A et al, 2008, Nat Protoc 3: 122-128), Briefly, a 1-mm burr hole was drilled 2.3 mm lateral to the midline and 0.2 mm anterior to the bregma. Thirty μL of autologous whole blood were drawn from the tail artery into a capillary tube. A 30-gauge needle was then advanced stereotactically through the burr hole into the right striatum (coordinates: 0.2 mm anterior, 2.3 mm lateral to the bregma, 3.5 mm ventral). […]
Neurofunction and behavioral testing. Sensorimotor function was evaluated by means of the 28-point neurological function score, corner test and forelimb placing tests, which were performed pre-operatively and at 6, 24, 48 and 72 hour post-injury. Navigational memory was evaluated with the means of a Morris water-maze (MWM) test pre-operatively and at 72 hours post ICH. […]
Corner test. […] The number of right and left turns out of 10 total attempts was recorded. The laterality index (LI) and normalized LI were calculated. The laterality index (LI) was calculated for each mouse, according to the formula: LI=(Number of right turns—Number of left turns)/(Total number of turns). The LI for the day before surgery (LIBS) and each of the post surgery days was calculated and normalized using the formula: Normalized LI=(LI+2)/(LIBS+2). […]

[2] = system: C57BL/6J mice subjected to ICH; assay: Brain water content (edema) after ICH; format: in vivo; conditions: for brain water content versus vehicle: 1 mg/kg i.p. first at 6 h and 12 h after ICH
Experimental: as §1
Mice were anesthetized with a single intraperitoneal dose of ketamine (90 mg/kg) and xylazine (5 mg/kg). Next, the mice were placed in a stereotactic frame (ASI Instruments, Inc., Warren, Mich., USA) and subjected to ICH using autologous blood infusion as previously described (Rynkowski M A et al, 2008, Nat Protoc 3: 122-128), Briefly, a 1-mm burr hole was drilled 2.3 mm lateral to the midline and 0.2 mm anterior to the bregma. Thirty μL of autologous whole blood were drawn from the tail artery into a capillary tube. A 30-gauge needle was then advanced stereotactically through the burr hole into the right striatum (coordinates: 0.2 mm anterior, 2.3 mm lateral to the bregma, 3.5 mm ventral). Using a microinfusion pump (KDS220, KD Scientific Inc., Holliston, Mass., USA), 5 μL was delivered at a rate of 1.5 μL per minute. After a 7-minute period, an additional 25 μL was delivered at a constant rate of 1.5 μL per minute. After a period of 10 minutes, the needle was slowly removed, the burr hole was occluded with bone wax and the skin incision was closed with Nexaband® (Abbott Laboratories, North Chicago, Ill.). Sham animals received only needle insertion. Rectal temperature was maintained at 37.0° C. using a feedback-controlled heating lamp, and the animals recovered in a temperature-controlled incubator for 45 minutes post-procedure.
Determination of brain water content. Mice were reanesthetized with Ketamine (80-100 mg/kg i.p.), Xylazine (5-10 mg/kg i.p.) and sacrificed 3 days post-hemorrhage to determine brain water content (sham vehicle n=8 Pre-C3aRA n=8, Post-C3aRA n=11). Brains were removed immediately en bloc and five 2-mm coronal slices were obtained beginning 2-mm from the frontal pole. The brain slices were divided into two hemispheres along the midline. The cortex of each hemisphere was then carefully dissected from the basal ganglia. The cerebellum was retained as a control. Each of the five sections was then weighed on an electronic analytical balance (Model AG 104, Mettler-Toledo, Inc., Columbus, Ohio, USA) to determine the wet weight. The sections were then placed onto pre-weighed cover slips and dried overnight in a vacuum oven for 24 hours to obtain the dry weight. Brain water content (%) was calculated as: ((wet weight-dry weight)/wet weight)×100.
Animal Preparation and Intracerebral Infusion. Adult male C57BL/6J mice weighing 23-30 g were randomized to receive intraperitoneal injection of either C3aRA (1 mg/kg) (SB290157, Calbiochem, Darmstadt, Germany), C5aRA (1 mg/kg), combined C3aRA and C5aRA or an equal volume of DMSO. Each drug was diluted in PBS (1.16% v/v) and given 6 and 12 hours after ICH induction, followed by twice daily doses for 72 hours. The sham group of animals was given PBS and DMSO (1.16% v/v) in the same manner. Mice were anesthetized with a single intraperitoneal dose of ketamine (90 mg/kg) and xylazine (5 mg/kg). […]

[3] = 1 mg/kg i.p. 45 minutes prior to ICH, then twice daily, 72 hours after ICH, mean±SEM
[4] = then twice daily, 72 hours after ICH

NC(N)=NCCC[C@H](NC(=O)COCC(c1ccccc1)c1ccccc1)C(=O)O [C3aRA]
corner test performance (normalized laterality index) ([1]; 1 mg/kg i.p. 45 minutes prior to ICH, then twice daily, 72 hours after ICH): no significant deficits compared with sham animals | corner turn test (laterality index) [1]: significant improvement at 48 hours | brain water content, ipsilateral basal ganglia [2, 3]: 77.43±0.43% | brain water content, ipsilateral cortex [2, 3]: 77.56±0.26% and 77.57±0.26% | brain water content versus vehicle [2, 4]: mildly decreased brain water content; also recorded: Trend towards decreased edema | water content in the contralateral cortex, the basal ganglia and cerebellum ([2]; pre-ICH dosing 1 mg/kg i.p., 72 hours, versus vehicle-treated and sham): not different

Acetyl-Phe-[Orn-Pro-D-cyclohexylalanine-Trp-Arg] [C5aRA]
corner turn test (laterality index) [1]: significant improvement at 48 hours | brain water content versus vehicle [2, 4]: mildly decreased brain water content
